Measurements reported in ChEMBL document CHEMBL2203217, “Prohormone-substrate peptide sequence recognition by peptidylglycine α-amidating monooxygenase and its reflection in increased glycolate inhibitor potency” (Bioorg Med Chem Lett, 2012).
pIC50: −log10 of the molar value.

Legend:
[1] = target: T1, Peptidyl-glycine alpha-amidating monooxygenase (Homo sapiens, UniProt P19021); assay: Competitive inhibition of secreted PAM in human DMS53 cell culture medium using as(R)-Tyr-(S)-Val-Gly as substrate after 2 hrs by HPLC analysis; design: species or system DMS-53
T1 sequence (P19021 whole entry): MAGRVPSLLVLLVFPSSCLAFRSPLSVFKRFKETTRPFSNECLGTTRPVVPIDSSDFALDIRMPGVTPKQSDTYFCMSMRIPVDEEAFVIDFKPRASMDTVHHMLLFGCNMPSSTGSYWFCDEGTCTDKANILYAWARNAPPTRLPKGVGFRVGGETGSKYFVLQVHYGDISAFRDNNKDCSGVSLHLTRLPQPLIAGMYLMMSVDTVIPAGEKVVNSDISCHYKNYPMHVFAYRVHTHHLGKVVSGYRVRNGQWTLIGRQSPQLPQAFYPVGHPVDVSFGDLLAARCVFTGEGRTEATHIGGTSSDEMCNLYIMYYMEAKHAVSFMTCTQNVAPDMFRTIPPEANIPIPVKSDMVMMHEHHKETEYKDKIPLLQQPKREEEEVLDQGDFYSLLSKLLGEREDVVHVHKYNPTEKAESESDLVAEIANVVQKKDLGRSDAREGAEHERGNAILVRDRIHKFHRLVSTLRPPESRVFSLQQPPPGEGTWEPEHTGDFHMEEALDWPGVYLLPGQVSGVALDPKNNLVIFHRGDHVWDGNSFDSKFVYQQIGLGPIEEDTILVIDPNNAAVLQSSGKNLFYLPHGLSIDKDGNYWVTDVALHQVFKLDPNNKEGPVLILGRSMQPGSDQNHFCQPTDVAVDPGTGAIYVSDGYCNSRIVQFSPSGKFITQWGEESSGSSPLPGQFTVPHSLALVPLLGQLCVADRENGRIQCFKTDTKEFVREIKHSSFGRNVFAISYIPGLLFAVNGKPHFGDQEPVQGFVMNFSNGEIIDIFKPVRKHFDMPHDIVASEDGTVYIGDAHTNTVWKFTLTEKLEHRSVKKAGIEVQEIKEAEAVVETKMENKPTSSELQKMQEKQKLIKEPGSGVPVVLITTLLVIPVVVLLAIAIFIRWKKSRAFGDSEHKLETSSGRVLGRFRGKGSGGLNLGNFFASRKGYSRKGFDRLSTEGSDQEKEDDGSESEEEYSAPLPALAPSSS

[2] = target: T1, Peptidyl-glycine alpha-amidating monooxygenase; assay: Competitive inhibition of PAM in human DMS53 cells using as(R)-Tyr-(S)-Val-Gly as substrate after 2 hrs by HPLC analysis; format: cell-based, DMS-53

CC(=O)OCC(=O)O was tested, and the pIC50 [1] was 2.96 and the pIC50 [2] was 2.96.
